Test system: Cancer cell lines
Test: The cytotoxicity in liposomal formulation was determined on the SF-763 human glioma cancer cell line
Format: functional, cell-based

Substance: Cholesteryl 1,12-dicarba-closo-dodecaborane-1-carboxylate (BCH)
- Viable cells: 98.5%

Source: ChEMBL document CHEMBL1134908, “Synthesis of cholesterol-carborane conjugate for targeted drug delivery” (Bioorg Med Chem Lett, 2002)
